From EP0056560A1, “Active antibiotic compositions, process for their manufacture and process for the antibiotic activity of antibiotics” (CIBA-GEIGY AG, priority 1981, dated 1982)

Legend:
Assay in all cases: Mouse protection test: i.p. infection, s.c. treatment with the antibiotic alone or combined with muramyl peptide, survivors counted
Assay type in all cases: in vivo, weisse Laboratoriums-Mäuse
Salmonella typhimurium = conditions: mice infected i.p. with 40 x 10^4 cfu Salmonella typhimurium; Cefroxadin s.c. immediately and 3 h after infection, combined with 10 mg/kg N-Acetyl-muramyl-L-alanyl-D-isoglutaminyl-L-alanyl-2-(1',2'-dipalmitoyl-sn-glycero-3'-hydroxyphosphoryloxy)-äthylamid, compared with Cefroxadin alone; survivors counted after 4 or 10 days
Description: (§1) Die hohe antibiotische Wirkung der neuen Präparate und des neuen Verfahrens kann durch "in vivo"-Versuche nachgewiesen werden, die an verschiedenen Tierarten, insbesondere an Säugetieren, wie Mäusen, durchgeführt werden. Dazu infiziert man sie mit einer letalen oder subletalen Dosis eines pathogenen Mikroorganismus und gibt dann das genannte neue Präparat bzw. die einzelnen Dosen an Muramylpeptid und Antibiotikum. Die Wirkung wird als ED50 bestimmt, das ist diejenige Dosis, bei der 50% der Tiere überleben.
(§2) Beispiel 4: Man infiziert weisse Laboratoriums-Mäuse auf i.p. Wege mit 2 x 10^4 cfu (colony forming units) Klebsiella pneumoniae, 0,1 x 10^4 cfu Pasteurella multocida oder 40 x 10^4 cfu Salmonella typhimurium in Salzlösung, so dass 90-100Z der nicht behandelten Kontrolltiere innerhalb von 48 Stunden getötet werden. Unmittelbar, sowie 3 Stunden nach der Infektion werden Gruppen zu je 10 Mäusen mit Cefroxadin, sowohl allein (ohne Muramylpeptid) als auch in Kombination mit 10 mg/kg N-Acetyl-muramyl-L-alanyl-D-isoglutaminyl-L-alanyl-2-(1',2'-dipalmitoyl-sn-glycero-3'-hydroxyphosphoryloxy)-äthylamid behandelt, wobei dieselben zweimal in Form wässriger Lösungen oder Suspensionen auf subkutanem Weg verabreicht werden. Nach 4 bzw. 10 Tagen nach erfolgter Infektion wurden die überlebenden Tiere gezählt.

Pasteurella multocida = conditions: mice infected i.p. with 0,1 x 10^4 cfu Pasteurella multocida; Cefroxadin s.c. immediately and 3 h after infection, combined with 10 mg/kg N-Acetyl-muramyl-L-alanyl-D-isoglutaminyl-L-alanyl-2-(1',2'-dipalmitoyl-sn-glycero-3'-hydroxyphosphoryloxy)-äthylamid, compared with Cefroxadin alone; survivors counted after 4 or 10 days
Description: as §1, §2

Klebsiella pneumoniae = conditions: mice infected i.p. with 2 x 10^4 cfu Klebsiella pneumoniae; Cefroxadin s.c. immediately and 3 h after infection, combined with 10 mg/kg N-Acetyl-muramyl-L-alanyl-D-isoglutaminyl-L-alanyl-2-(1',2'-dipalmitoyl-sn-glycero-3'-hydroxyphosphoryloxy)-äthylamid, compared with Cefroxadin alone; survivors counted after 4 or 10 days
Description: as §1, §2

Measured: ED50-Werte für das Antibiotikum bei kombinierter Gabe mit dem Muramylpeptid

COC1=C(C(=O)O)N2C(=O)[C@@H](NC(=O)[C@H](N)C3=CCC=CC3)[C@H]2SC1 [Cefroxadin, 7ß-[D-2-amino-2-(1,4-cyclohexadienyl)-acetamido]-3-methoxy-3-cephem-4-carbonsäure]
um ein Mehrfaches niedriger: all assays above
